One data set deals with PANC-1 cells. As to the kind of experiment: Inhibition of cancer cell proliferation, total cellular protein (Sulphorhodamine B), PANC-1. The note with it: Homo sapiens, 72 h, read-out: IC50 based on quantitation of total cellular protein after treatment. Here is the method:
To assess the antiproliferative response elicited by the compounds of the present invention in different tumour cell lines, total cellular protein in samples was quantified using the Sulphorhodamine B kit, TOX6, (Sigma-Aldrich). The protocol is based on quantitation of total cellular protein after indicated treatments and incubation times using the Sulphorhodamine B kit, TOX6, (Sigma-Aldrich).
Briefly, after protein precipitation using TCA according to the manufacturer's instructions, the sulphorhodamine dye (80 μL/well) was added to the air-dried wells. After 20 min incubation at room temperature, the dye was discarded and the samples were gently rinsed with 1% HOAc until clear. After air drying, bound dye was solubilised in 200 μL 10 mM Tris base, and the absorbance of dye was measured at 565 nm. To quantify growth, samples were collected also at t=0 h, and the resulting absorbance was set to 100%.
For experiments studying the effect of the herein described compounds per se, i.e. without combination treatment with cisplatin, the above protocol was applied with the following modifications. See Table II for details for each specific cell line. Briefly, cells were plated at a density of 6,000 cells/well 96-well Corning Costar tissue culture plates (CLS3596, Sigma-Aldrich) in assay medium and allowed to attach over night at 37° C., 5% CO2. Day 2 the compounds were diluted ½ in dose response curve mode in 100% DMSO, required volume was transferred to assay medium to a maximal DMSO concentration of 0.1%. The diluted compounds were added to the cells with a starting dose response concentration of 100 μM. All compounds were tested in duplicate plates.
After protein precipitation using TCA according to the manufacturer's instructions, the sulforhodamine B dye (50 μL/well) was added to the air-dried wells. After 20 min incubation at room temperature, the dye was discarded and the samples were gently rinsed with 1% HOAc until clear. After air drying, bound dye was solubilised in 100 μL 10 mM Tris base, and the absorbance of dye was measured at 530 nm and a background absorbance (subtract from the measurement at 530 nm) at 690 nm. To quantify growth, samples were collected also at t=0 h.

The subject of another data set is F-2,6-P2 in NUGC-3 cells. Description: Quantification of F-2,6-P2 (Van Schaftingen coupled enzyme assay) in NUGC-3 cells. It is filed as cell-based. The note with it: Homo sapiens, NUGC-3 cells, read-out: IC50 based on quantification of F-2,6-P2. The source says: A method for quantification of F-2,6-P2 has been described by Van Schaftingen et al. (1982) Eur. J. Biochem. 129, 191-5. This sensitive assay is based on the potent activation of pyrophosphate dependent phosphofructokinase-1 (PPi-PFK) from potato tubers by F-2,6-P2. The use of a series of coupled enzymes leads to a consumption of NADH (nicotinamide adenine dinucleotide) that can be followed spectrophotometrically (an updated protocol is available in Van Schaftingen, (1984) Methods of Enzymatic Analysis (Bergmeyer, H. U., ed.), 3rd edn., vol. 6, pp. 335-341, Verlag Chemie, Weinheim). A protocol for measurements in 96-well microtiter plate format is also available (Bruni et al., (1989) Anal. Biochem. 178, 324-6).
The levels of F-2,6-P2 have been determined using the van Shaftingen assay as described in the protocol below, in six different cancer cell lines endogenously expressing varying levels of the different isoforms of PFK-2/BPase-2 (MCF-7, PANC-1, NUGC-3, SW480, SW620 and MIA PaCa-2). All reagents were purchased from commercial sources or prepared in-house.
Cell line C (NUGC-3, human gastric cancer cell line): NUGC-3 cells (JCRB0822), lot no. 04272009. Growth medium: RPMI1640, #R8758, Sigma-Aldrich; 10% FBS, Invitrogen, 10270-106 or Dulbecco's Modified Eagle's Medium, DMEM, VWR, LONZ12-604F; 10% FBS, Invitrogen, 10270-106. Cells were seeded at a concentration of ˜350 000 cells/mL in 100 μL growth medium (˜35 000 cells/well).
Starvation medium (cell lines A-F): DMEM/F12 without phenol red and glucose free, SVA, 991373; 0.25% FBS, Invitrogen, 10270-106.
Induction medium (cell lines A-F): DMEM/F12 without phenol red and glucose free, SVA, 991373; 0.25% FBS, Invitrogen, 10270-106 (same as starvation medium).
Cells were seeded in 96-well Corning Costar tissue culture plates (CLS3595, Sigma-Aldrich) using the concentrations specified above for the different cell lines A-F and incubated over night at 37° C. and 5% CO2. Row A in the plate was left empty and the cell lines added to rows B-H. Next day the growth medium was discarded and replaced with 100 μL starvation medium. The plates were incubated for 18 h at 37° C. and 5% CO2. After 18 h of starvation the cells were induced with 100 μL compound or control solutions. Compounds were either tested in two concentrations (50 μM and 10 μM) or in dose response curves starting from 50 μM. The final DMSO concentration in assay plates was 0.5%. Also a dose response curve of a reference inhibitor was included in row H on each plate. All compounds were tested in duplicate plates. Compounds (in 96 well CLS 3365, Sigma-Aldrich plates) were serial diluted in DMSO from 10 mM compound DMSO stock solutions with Janus (automated liquid handling workstation from PerkinElmer). Five μL were transferred to a Greiner deep well plate (736-0155, VWR) with 495 μL starvation medium. The final start concentration of compounds in the dilution plate was 100 μM, 1% DMSO. For compounds tested as single points, 10 mM compound solutions were diluted five fold in DMSO to 2 mM, followed by the transfer of 5 μL to separate dilution plates with 495 μL starvation medium. The final concentrations of compounds in these dilution plates were 100 or 20 μM, respectively, and final concentration of DMSO was 1%. The plates were incubated at 37° C. and 5% CO2 for 1 h, followed by the addition of 10 μL 20 mM D-glucose in starvation medium. Controls, with and without 1 mM glucose, were included in row B. The final assay volume was 210 μL per well. After 2 h of incubation at 37° C. and 5% CO2, the supernatants were discarded and the cells lysed by the addition of 25 μL 250 mM NaOH. The plates were incubated at 37° C. and 5% CO2 for 5 min followed by an addition of 75 μL MilliQ dH2O. The supernatants were further diluted with 210 μL MilliQ dH2O to a final concentration of 20 mM NaOH. 200 μL were transferred to NUNC 96-well plates (7322661, VWR) and the plates were sealed and stored at −20° C. until analysis. […]

The test system of a further data set is F-2,6-P2 in PANC-1 cells. Description: Quantification of F-2,6-P2 (Van Schaftingen coupled enzyme assay) in PANC-1 cells. The data set is classed as cell-based, human. The note with it: for pIC50: Homo sapiens, PANC-1 cells, read-out: IC50 based on quantification of F-2,6-P2. In short, it runs like this:
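PANC-1 cells (~25 000/well) starved 18 h in glucose-free 0.25% FBS medium, treated 1 h with compound (50 and 10 μM, or dose response from 50 μM; 0.5% DMSO), then glucose added for 2 h at 37 °C. Cells lysed in NaOH; F-2,6-P2 quantified by PPi-PFK coupled NADH-consumption spectrophotometry.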

The nature of data set [1]: Cell toxicity, CellTiter-Blue Cell Viability Assay. Particulars: human, MIA PaCa-2 pancreatic carcinoma cells, MIA PaCa-2 cells, 72 h culture, read-out: IC50 based on cell toxicity. The protocol: The CellTiter-Blue® Cell Viability Assay provides a homogeneous, fluorometric method for estimating the number of viable cells present in multi-well plates. It uses the indicator dye resazurin to measure the metabolic capacity of cells. Viable cells retain the ability to reduce resazurin into resorufin, which is highly fluorescent.
Stock solutions (10 or 100 mM in DMSO) of compounds were serially diluted 1:2 in 11 concentrations. 25 nL/well (100 mM stock) or 50 nL/well (10 mM stock) were acoustically dispensed in assay plates with EDC acoustic dispenser. Final starting conc. in assay was 20 μM (0.2% DMSO) or 100 μM (0.1% DMSO) for test compounds.
Cells (MIA-PaCa-2; pancreatic carcinoma) were seeded in assay plates (384-well black/clear, Greiner #781091) pre-dispensed with compounds, 25 μL/well, and cultured for 72 h. The cell concentration was 750 cells/well. After 72 h culture, Celltiter Blue reagent was added (5 μL/well) and the plates were incubated for 2 h. The plates were read in an Envision fluorescence reader with Ex544 nm/Em590 nm. Results were calculated as % cytotoxicity compared to background (cells treated with 0.2% DMSO).
On the technique in general: Resazurin is reduced to fluorescent resorufin, in cell work by metabolically active cells.

pIC50: −log10 of the molar value. Structures can show the parent of a compound that is named as a salt. Where two headings read alike, the source gives them in different places.

A word on the pIC50: it is −log10 of the IC50, conventionally taken in molar units. Turning to `O=C(OCCCN1CCOCC1)c1ccc(NS(=O)(=O)c2c(Cl)sc(Cl)c2Br)cc1O` [Example 199, 3-Morpholin-4-ylpropyl 4-{[(4-bromo-2,5-dichlorothiophen-3-yl)sulfonyl]amino}-2-hydroxybenzoate trifluoroacetate], the pIC50 in the data set on PANC-1 cells is 4.69.

With `CC(CCN1CCOCC1)OC(=O)c1ccc(NS(=O)(=O)c2cc(Cl)c(Cl)s2)cc1O` (stereo not shown) [Example 193], the pIC50 in the data set with F-2,6-P2 in NUGC-3 cells is 5.92.

On to `COC(=O)c1ccc(NS(=O)(=O)c2cc(Cl)c(Cl)s2)cc1O` [Example 27, Methyl 4-{[(4,5-dichloro-2-thienyl)sulfonyl]amino}-2-hydroxybenzoate], for which the pIC50 with F-2,6-P2 in PANC-1 cells was 6.10; with F-2,6-P2 in NUGC-3 cells, 6.05. What is called IC50 is the concentration needed to halve the response being measured. Consider `CC(C)(C)OC(=O)N1CCC(OC(=O)c2ccc(NS(=O)(=O)c3c(Cl)sc(Cl)c3Cl)cc2O)C1` (stereo not shown) [Example 205, tert-Butyl 3-[(2-hydroxy-4-{[(2,4,5-trichloro-3-thienyl)sulfonyl]amino}benzoyl)oxy]pyrrolidine-1-carboxylate], for which the IC50 at 72 h in data set [1] was found to be 17.7 µM.

With `O=C(OCCCN1CCOCC1)c1ccc(NS(=O)(=O)c2cc(-c3ccc4c(c3)OCO4)c(Cl)s2)cc1O` [Example 162, 3-Morpholin-4-ylpropyl 4-({[4-(1,3-benzodioxol-5-yl)-5-chloro-2-thienyl]sulfonyl}amino)-2-hydroxybenzoate trifluoroacetate], the pIC50 with F-2,6-P2 in NUGC-3 cells was 5.55.

As for `CCC(COC(=O)c1ccc(NS(=O)(=O)c2cccc(-c3cc(F)ccc3O)c2)cc1O)OC` (stereo not shown) [Example 182, 2-Methoxybutyl 4-{[(5′-fluoro-2′-hydroxybiphenyl-3-yl)sulfonyl]amino}-2-hydroxybenzoate], the IC50 at 72 h in data set [1] worked out at 6.3 µM. As to `O=C(OCC1CCOC1)c1ccc(NS(=O)(=O)c2cc(Cl)c(Cl)s2)cc1O` (stereo not shown) [Example 75, Tetrahydrofuran-3-ylmethyl 4-{[(4,5-dichloro-2-thienyl)sulfonyl]amino}-2-hydroxybenzoate], in data set [1], the IC50 at 72 h came to 25.3 µM.

`COC(=O)c1ccc(NS(=O)(=O)c2cccc(-c3cc(F)ccc3F)c2)cc1O` [Example 153, Methyl 4-{[(2′,5′-difluorobiphenyl-3-yl)sulfonyl]amino}-2-hydroxybenzoate]: the pIC50 with F-2,6-P2 in NUGC-3 cells was 5.29. For `O=C(OCCCN1CCOCC1)c1ccc(NS(=O)(=O)c2cccc(-c3cc(F)ccc3O)c2)cc1O` [Example 160, 3-Morpholin-4-ylpropyl 4-{[(5′-fluoro-2′-hydroxybiphenyl-3-yl)sulfonyl]amino}-2-hydroxybenzoate trifluoroacetate], the IC50 at 72 h in data set [1] is 3.6 µM.

Regarding `Cn1c(COC(=O)c2ccc(NS(=O)(=O)c3cc(Cl)c(Cl)s3)cc2O)cnc1[N+](=O)[O-]` [Example 202, (1-Methyl-2-nitro-1H-imidazol-5-yl)methyl 4-{[(4,5-dichlorothiophen-2-yl)sulfonyl]amino}-2-hydroxybenzoate], the pIC50 in the data set with F-2,6-P2 in NUGC-3 cells (under hypoxia (0.6-1% O2)) is 5.25. Take `COCC(COC)OC(=O)c1ccc(NS(=O)(=O)c2cc(Cl)cc(Cl)c2)cc1O` [Example 191, 2-Methoxy-1-(methoxymethyl)ethyl 4-{[(3,5-dichlorophenyl)sulfonyl]amino}-2-hydroxybenzoate]: in the data set on F-2,6-P2 in NUGC-3 cells, the pIC50 is 5.85. On to `COC(=O)c1ccc(NS(=O)(=O)c2cccc3c(N(C)C)cccc23)cc1O` [Example 40, Methyl 4-({[5-(dimethylamino)naphthalen-1-yl]sulfonyl}amino)-2-hydroxybenzoate trifluoroacetate], for which, in the data set on F-2,6-P2 in PANC-1 cells, the pIC50 is 5.68.

`COC(=O)c1ccc(NS(=O)(=O)c2ccc(CNC(=O)c3ccccc3)s2)cc1O` [Example 41, Methyl 2-hydroxy-4-{[(5-{[(phenylcarbonyl)amino]methyl}thiophen-2-yl)sulfonyl]amino}benzoate]: in the data set with F-2,6-P2 in PANC-1 cells, the pIC50 was 4.72. Regarding `COC(=O)c1ccc(NS(=O)(=O)c2cc(-c3cccc(C(=O)N(C)C)c3)c(Cl)s2)cc1O` [Example 143, Methyl 4-[({5-chloro-4-[3-(dimethylcarbamoyl)phenyl]thiophen-2-yl}sulfonyl)amino]-2-hydroxybenzoate], in the data set with F-2,6-P2 in PANC-1 cells, the pIC50 is 5.62. For the compound `COC(=O)c1ccc(NS(=O)(=O)c2cnc(Cl)c(-c3cccc(F)c3)c2)cc1O` [Example 83, Methyl 4-({[6-chloro-5-(3-fluorophenyl)pyridin-3-yl]sulfonyl}amino)-2-hydroxybenzoate], the “inhibition (F-2,6-P2 levels)” value in the data set with F-2,6-P2 in PANC-1 cells (at 12.5-50 μM in PANC-1 cells) is given as ≥ 50%.

These data come from patent US9718809B2, “Bisarylsulfonamides useful in the treatment of inflammation and cancer” (Kancera AB, priority 2011, dated 2017).
